Experimental findings from the supplement of paper PMC11208160 are described below.

The nature of the data set: recombinant barcode read abundance after kanamycin selection (control-corrected) (log10(CPM+1)); higher = more efficient recombination; sequences stand for … in AGTGCAGAGAAAATCGGCCAGTTTTCTCTGCCTGCAGTCCGCATGCCGT…AGATTTATGCAGCGGACTGCCTTTCTCCCAAAGTGATAAACCGGACAGTATCATGGACCGGTTTTCCCGGTAATCCGTATTTGCAAGGTTGGTTTCACT; site = the 11-nt target. In short, it runs like this:
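A vector carrying a T7-inducible recombinase and the last 73 bp of the bridge RNA received, by Gibson cloning, oligos encoding a promoter, target, barcode and the first 104 bridge RNA bases under J23119. The pooled constructs entered E. coli together with a donor plasmid by electroporation. Selection used chloramphenicol/ampicillin/kanamycin with 0.1 mM IPTG, with chloramphenicol/ampicillin LB agar as the control, each in two replicates. Recombination efficiency is the averaged, control-corrected counts-per-million of barcodes at recombinant junctions, reported as log10(CPM+1).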
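Also: IS621 recombinase and bridge RNA in Escherichia coli cells.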

For the sequence “AGCGGCCCTTGGGTTCTAACCTGTTGCCT (site AGCGGTCCTAG)”, the “recombinant barcode read abundance (log10)” value stood at 0.0761.

As to “AGCTAATCTTGGGTTCTAACCTGTTGCTT (site AGCTAATCTAA)”, the “recombinant barcode read abundance (log10)” value is 0.0369.

Take “AGCTAATCTTGGGTTCTAACCTGTTGCTT (site GAGCTGCCTTG)”: the “recombinant barcode read abundance (log10)” value was determined as 0.0324.

As for “AGCTATGCTTGGGTTCTAACCTGTTGCCT (site AGCTATGCTAG)”, the “recombinant barcode read abundance (log10)” value is 0.317.

“AGCTATGCTTGGGTTCTAACCTGTTGCCT (site GAAATACCTCC)”: the “recombinant barcode read abundance (log10)” value came to 0.138.

Consider “AGCTGTCCTTGGGTTCTAACCTGTTGCAG (site AGCTGTCCTCT)”, for which the “recombinant barcode read abundance (log10)” value came out at 0.273.

In the case of “AGCTGTCCTTGGGTTCTAACCTGTTGCAG (site TAGGCGGCTAC)”, the “recombinant barcode read abundance (log10)” value stood at 0.0556.

In the case of “AGCTTAGCTTGGGTTCTAACCTGTTGCCA (site AGCTTAGCTAG)”, the “recombinant barcode read abundance (log10)” value was 0.484.

On to “AGCTTAGCTTGGGTTCTAACCTGTTGCCA (site AGCTTAGCTCG)”, for which the “recombinant barcode read abundance (log10)” value turned out to be 0.365.

Turning to “AGCTTAGCTTGGGTTCTAACCTGTTGCCA (site AGCTTAGCTGG)”, the “recombinant barcode read abundance (log10)” value is 0.463.

As to “AGCTTAGCTTGGGTTCTAACCTGTTGCCA (site AGCTTAGCTTG)”, the “recombinant barcode read abundance (log10)” value was found to be 0.387.

“AGGAACACTTGGGTTCTAACCTGTTGCCT (site AGAAACACTAG)”: the “recombinant barcode read abundance (log10)” value turned out to be 1.36.

For “AGGAACACTTGGGTTCTAACCTGTTGCCT (site AGGAACACTAG)”, the “recombinant barcode read abundance (log10)” value is 1.94.

Turning to “AGGAACACTTGGGTTCTAACCTGTTGCTG (site AGGAACACTAA)”, the “recombinant barcode read abundance (log10)” value was 0.803.

“AGGAACACTTGGGTTCTAACCTGTTGCTG (site AGGAACACTCA)”: the “recombinant barcode read abundance (log10)” value stood at 2.65.

“AGGAACTCTTGGGTTCTAACCTGTTGCAT (site AGGAACTCTAT)”: the “recombinant barcode read abundance (log10)” value is 2.44.

As for “AGGAACTCTTGGGTTCTAACCTGTTGCAT (site GGGAACCCTAT)”, the “recombinant barcode read abundance (log10)” value is 0.0839.

Turning to “AGGAACTCTTGGGTTCTAACCTGTTGCTT (site AGGAACTCTAA)”, the “recombinant barcode read abundance (log10)” value stood at 1.87.

For the sequence “AGGAACTCTTGGGTTCTAACCTGTTGCTT (site AGGAGCTCTTA)”, the “recombinant barcode read abundance (log10)” value was found to be 0.0561.

Take “AGGAAGACTTGGGTTCTAACCTGTTGCCA (site AGGAAGACTTG)”: the “recombinant barcode read abundance (log10)” value amounted to 0.948.

On to “AGGAAGACTTGGGTTCTAACCTGTTGCCA (site AGGCAGACTTG)”, for which the “recombinant barcode read abundance (log10)” value amounted to 0.0465.

As to “AGGAAGACTTGGGTTCTAACCTGTTGCCA (site AGGGAGACTTG)”, the “recombinant barcode read abundance (log10)” value is 0.239.

As to “AGGAAGACTTGGGTTCTAACCTGTTGCCA (site AGGTAGACTTG)”, the “recombinant barcode read abundance (log10)” value was determined as 0.412.

On to “AGGAAGACTTGGGTTCTAACCTGTTGCCG (site AGGAAGACTCC)”, for which the “recombinant barcode read abundance (log10)” value was 0.883.

In the case of “AGGAAGACTTGGGTTCTAACCTGTTGCCG (site AGGAAGACTCG)”, the “recombinant barcode read abundance (log10)” value was determined as 1.95.

In the case of “AGGACCACTTGGGTTCTAACCTGTTGCCA (site AGGACCACTTG)”, the “recombinant barcode read abundance (log10)” value turned out to be 0.868.

Turning to “AGGACCACTTGGGTTCTAACCTGTTGCCA (site ATGACCGCTTG)”, the “recombinant barcode read abundance (log10)” value was 0.0948.

Regarding “AGGAGCCCTTGGGTTCTAACCTGTTGCGA (site AGGAGCCCTTC)”, the “recombinant barcode read abundance (log10)” value was 2.84.

Take “AGGAGCCCTTGGGTTCTAACCTGTTGCGA (site CGGAGCCCTCC)”: the “recombinant barcode read abundance (log10)” value is 0.0589.

Take “AGGAGTCCTTGGGTTCTAACCTGTTGCGT (site AGCAGTCCTAC)”: the “recombinant barcode read abundance (log10)” value was found to be 0.182.

For “AGGAGTCCTTGGGTTCTAACCTGTTGCGT (site AGGAGTCCTAC)”, the “recombinant barcode read abundance (log10)” value came out at 2.57.

As to “AGGAGTCCTTGGGTTCTAACCTGTTGCTG (site AGGAATCCTAA)”, the “recombinant barcode read abundance (log10)” value was determined as 1.57.

Turning to “AGGAGTCCTTGGGTTCTAACCTGTTGCTG (site AGGAGTCCTCA)”, the “recombinant barcode read abundance (log10)” value stood at 2.08.

Take “AGGATTCCTTGGGTTCTAACCTGTTGCCT (site AAGATTCCTAG)”: the “recombinant barcode read abundance (log10)” value amounted to 0.171.

Regarding “AGGATTCCTTGGGTTCTAACCTGTTGCCT (site ACGATTCCTAG)”, the “recombinant barcode read abundance (log10)” value was 0.634.

For the sequence “AGGATTCCTTGGGTTCTAACCTGTTGCCT (site AGGATTCCTAG)”, the “recombinant barcode read abundance (log10)” value turned out to be 1.16.

Regarding “AGGATTCCTTGGGTTCTAACCTGTTGCCT (site ATGATTCCTAG)”, the “recombinant barcode read abundance (log10)” value worked out at 0.158.

Turning to “AGGCCCACTTGGGTTCTAACCTGTTGCTC (site AGGCCCACTGA)”, the “recombinant barcode read abundance (log10)” value came out at 1.81.

With “AGGCCCACTTGGGTTCTAACCTGTTGCTC (site AGGTCCACTCA)”, the “recombinant barcode read abundance (log10)” value worked out at 0.166.

Take “AGGCCGTCTTGGGTTCTAACCTGTTGCGT (site AGGCAGTCTAG)”: the “recombinant barcode read abundance (log10)” value is 0.195.

Turning to “AGGCCGTCTTGGGTTCTAACCTGTTGCGT (site AGGCCGTCTAC)”, the “recombinant barcode read abundance (log10)” value amounted to 2.43.

For “AGGCGCCCTTGGGTTCTAACCTGTTGCAT (site AGGCGCCCTAT)”, the “recombinant barcode read abundance (log10)” value is 1.29.

Consider “AGGCGCCCTTGGGTTCTAACCTGTTGCAT (site AGGCGCCCTCT)”, for which the “recombinant barcode read abundance (log10)” value was determined as 0.041.

Regarding “AGGCGCCCTTGGGTTCTAACCTGTTGCAT (site AGGCGCCCTGT)”, the “recombinant barcode read abundance (log10)” value was found to be 0.219.

As to “AGGCGCCCTTGGGTTCTAACCTGTTGCAT (site AGGCGCCCTTT)”, the “recombinant barcode read abundance (log10)” value was 0.244.

As to “AGGCGTCCTTGGGTTCTAACCTGTTGCCG (site AGGCGTCCTAG)”, the “recombinant barcode read abundance (log10)” value came out at 0.964.

On to “AGGCGTCCTTGGGTTCTAACCTGTTGCCG (site AGGCGTCCTCG)”, for which the “recombinant barcode read abundance (log10)” value was found to be 1.24.

On to “AGGCGTCCTTGGGTTCTAACCTGTTGCCG (site AGGCGTCCTGG)”, for which the “recombinant barcode read abundance (log10)” value was 0.227.

As for “AGGCGTCCTTGGGTTCTAACCTGTTGCCG (site AGGCGTCCTTG)”, the “recombinant barcode read abundance (log10)” value came out at 0.122.

Turning to “AGGCGTCCTTGGGTTCTAACCTGTTGCCT (site AGGCGTCCTAG)”, the “recombinant barcode read abundance (log10)” value came to 1.44.

Turning to “AGGCGTCCTTGGGTTCTAACCTGTTGCCT (site AGGCGTCCTCG)”, the “recombinant barcode read abundance (log10)” value came to 0.249.

Consider “AGGCGTCCTTGGGTTCTAACCTGTTGCCT (site AGGCGTCCTGG)”, for which the “recombinant barcode read abundance (log10)” value is 1.03.

Take “AGGCGTCCTTGGGTTCTAACCTGTTGCCT (site AGGCGTCCTTG)”: the “recombinant barcode read abundance (log10)” value was determined as 0.374.

As to “AGGGATCCTTGGGTTCTAACCTGTTGCGT (site AGGGATCCTAC)”, the “recombinant barcode read abundance (log10)” value worked out at 3.09.

“AGGGATCCTTGGGTTCTAACCTGTTGCGT (site ATGGATCCTAC)”: the “recombinant barcode read abundance (log10)” value worked out at 1.29.

With “AGGGCACCTTGGGTTCTAACCTGTTGCAG (site AGGGCACCTCT)”, the “recombinant barcode read abundance (log10)” value amounted to 1.56.

Take “AGGGCACCTTGGGTTCTAACCTGTTGCAG (site CATCGGACTTC)”: the “recombinant barcode read abundance (log10)” value is 0.142.

In the case of “AGGGCGTCTTGGGTTCTAACCTGTTGCCG (site AGGGCATCTAG)”, the “recombinant barcode read abundance (log10)” value stood at 0.0811.

On to “AGGGCGTCTTGGGTTCTAACCTGTTGCCG (site AGGGCGTCTCG)”, for which the “recombinant barcode read abundance (log10)” value came to 1.69.

As for “AGGGTCACTTGGGTTCTAACCTGTTGCCT (site AAGGTCACTAG)”, the “recombinant barcode read abundance (log10)” value was 0.274.

For “AGGGTCACTTGGGTTCTAACCTGTTGCCT (site ACGGTCACTAG)”, the “recombinant barcode read abundance (log10)” value stood at 0.653.

Regarding “AGGGTCACTTGGGTTCTAACCTGTTGCCT (site AGGGTCACTAG)”, the “recombinant barcode read abundance (log10)” value came out at 2.23.

As to “AGGGTCACTTGGGTTCTAACCTGTTGCCT (site ATGGTCACTAG)”, the “recombinant barcode read abundance (log10)” value was 1.06.

“AGGGTGTCTTGGGTTCTAACCTGTTGCTG (site AGGGTGCCTTA)”: the “recombinant barcode read abundance (log10)” value amounted to 0.105.

As for “AGGGTGTCTTGGGTTCTAACCTGTTGCTG (site AGGGTGTCTCA)”, the “recombinant barcode read abundance (log10)” value was determined as 2.55.

Regarding “AGGTACACTTGGGTTCTAACCTGTTGCAC (site AGGTACACTGT)”, the “recombinant barcode read abundance (log10)” value was 2.22.

Take “AGGTACACTTGGGTTCTAACCTGTTGCAC (site TTCAGACCTAG)”: the “recombinant barcode read abundance (log10)” value was 0.0924.

Regarding “AGGTCCACTTGGGTTCTAACCTGTTGCTG (site AGGCCCACTGA)”, the “recombinant barcode read abundance (log10)” value was 0.109.

For “AGGTCCACTTGGGTTCTAACCTGTTGCTG (site AGGTCCACTCA)”, the “recombinant barcode read abundance (log10)” value was found to be 1.31.

“AGGTCCTCTTGGGTTCTAACCTGTTGCCT (site AGGTCCTCTAA)”: the “recombinant barcode read abundance (log10)” value is 1.05.

Regarding “AGGTCCTCTTGGGTTCTAACCTGTTGCCT (site AGGTCCTCTAC)”, the “recombinant barcode read abundance (log10)” value is 0.233.

“AGGTCCTCTTGGGTTCTAACCTGTTGCCT (site AGGTCCTCTAG)”: the “recombinant barcode read abundance (log10)” value was determined as 2.06.

As to “AGGTCCTCTTGGGTTCTAACCTGTTGCCT (site AGGTCCTCTAT)”, the “recombinant barcode read abundance (log10)” value is 0.703.

As to “AGGTCTACTTGGGTTCTAACCTGTTGCCA (site AGGTCTACTTG)”, the “recombinant barcode read abundance (log10)” value is 0.6.

Consider “AGGTCTACTTGGGTTCTAACCTGTTGCCA (site TTAGACCCTCT)”, for which the “recombinant barcode read abundance (log10)” value stood at 0.1.

On to “AGGTCTACTTGGGTTCTAACCTGTTGCGG (site AGGTCTACTCC)”, for which the “recombinant barcode read abundance (log10)” value was determined as 1.63.

As to “AGGTCTACTTGGGTTCTAACCTGTTGCGG (site GAAAACTCTAG)”, the “recombinant barcode read abundance (log10)” value was 0.0493.
